Source: patent US6677460B1, “Aromatic carboxylic acid bicyclic sulfur compounds” (Idemitsu Kosan Company, Limited, priority 1993, dated 2004)
One block for each compound: values may come before it.

Legend:
corn = assay: Upland soil treatment test (5), phytotoxicity; type: in vivo; settings: dosage 100 g a.i./hectare, 20th day after treatment
Protocol: (§1) 90 Parts by weight of the above carrier and 10 parts by weight of each of Compounds obtained in the above Preparation Examples were uniformly pulverized and mixed to obtain herbicides. Further, for Herbicide Comparative Examples, comparative herbicides were prepared by uniformly pulverizing and mixing 90 parts by weight of the above carrier and 10 parts by weight of each of the following Compounds x, y, A, B and C.
(§2) (5) Biological Test (Upland Soil Treatment Test, Herbicide Examples 10-26 and Comparative Example 9)
(§3) Seeds of weeds such as large crabgrass, barnyard grass, green foxtail, cocklebur, velvetleaf and slender amaranth and seeds of corn, wheat and barley were sown in 1/5,000-are Wagner pots filled with upland soil, and covered with upland soil. Then, a predetermined amount of the herbicide prepared in the above (1) was suspended in water and uniformly sprayed onto the soil surface. Thereafter, the plants were grown in the greenhouse, and on 20th day after the treatment, the herbicide was evaluated for herbicidal efficacy.
(§4) The dosage of each herbicide is indicated as an amount of the active ingredient per hectare. Further, air-dried weight were measured, and herbicidal efficacy and the pytotoxicity to corn are shown on the basis of the ratings described below.

velvetleaf [1] = assay: Upland soil treatment test (3); type: in vivo; settings: 20th day after treatment; also: ranges in brackets are in %
Protocol: as §1
(§5) (3) Biological Test (Upland Soil Treatment Test, Herbicide Examples 3 and 4 and Herbicide Comparative Examples 3 and 4)
as §3, with “barnyardgrass,” for “barnyard grass,”
(§6) The herbicidal efficacy and the phytotoxicity to crops are shown on the basis of the ratings described in (2) Foliar treatment test.

large crabgrass [2] = assay: Upland soil treatment test (3); type: in vivo; settings: 20th day after treatment; also: ranges in brackets are in %
Protocol: as §1, §5
as §3, with “barnyardgrass,” for “barnyard grass,”
as §6

green foxtail [3] = assay: Upland soil treatment test (3); type: in vivo; settings: 20th day after treatment; also: ranges in brackets are in %
Protocol: as §1, §5
as §3, with “barnyardgrass,” for “barnyard grass,”
as §6

barnyard grass [4] = assay: Upland soil treatment test (3); type: in vivo; settings: 20th day after treatment; also: ranges in brackets are in %
Protocol: as §1, §5
as §3, with “barnyardgrass,” for “barnyard grass,”
as §6

slender amaranth [5] = assay: Upland soil treatment test (3); type: in vivo; settings: 20th day after treatment; also: ranges in brackets are in %
Protocol: as §1, §5
as §3, with “barnyardgrass,” for “barnyard grass,”
as §6

cocklebur [6] = assay: Upland soil treatment test (3); type: in vivo; settings: 20th day after treatment; also: ranges in brackets are in %
Protocol: as §1, §5
as §3, with “barnyardgrass,” for “barnyard grass,”
as §6

velvetleaf [7] = assay: Upland soil treatment test (5); type: in vivo; settings: dosage 100 g a.i./hectare, 20th day after treatment; also: ranges in brackets are in %
Protocol: as §1, §2, §3, §4

large crabgrass [8] = assay: Upland soil treatment test (5); type: in vivo; settings: dosage 100 g a.i./hectare, 20th day after treatment; also: ranges in brackets are in %
Protocol: as §1, §2, §3, §4

green foxtail [9] = assay: Upland soil treatment test (5); type: in vivo; settings: dosage 100 g a.i./hectare, 20th day after treatment; also: ranges in brackets are in %
Protocol: as §1, §2, §3, §4

barnyard grass [10] = assay: Upland soil treatment test (5); type: in vivo; settings: dosage 100 g a.i./hectare, 20th day after treatment; also: ranges in brackets are in %
Protocol: as §1, §2, §3, §4

slender amaranth [11] = assay: Upland soil treatment test (5); type: in vivo; settings: dosage 100 g a.i./hectare, 20th day after treatment; also: ranges in brackets are in %
Protocol: as §1, §2, §3, §4

cocklebur [12] = assay: Upland soil treatment test (5); type: in vivo; settings: dosage 100 g a.i./hectare, 20th day after treatment; also: ranges in brackets are in %
Protocol: as §1, §2, §3, §4

velvetleaf [13] = assay: Foliar treatment test (2); type: in vivo; settings: 20th day after treatment; also: ranges in brackets are in %
Protocol: as §1
(§7) (2) Biological Test (Foliar Treatment Test, Herbicide Examples 1 and 2 and Herbicide Comparative Examples 1 and 2)
as §3, with “The seeds were grown in a greenhouse, and at the stage of 1˜2 leaves of these plants,” for “Then,”, “leaf and stalk portions at a rate of 200 liter/10 are.” for “the soil surface.”
(§8) The herbicidal efficacy and phytotoxcity to crops were shown on the basis of the following ratings.
(§9) The ratio of remaining plant weight to non-treated was determined on the basis of the ratio of remaining plant weight to non-treated=(remaining plant weight in treated plot/remaining plant weight in non-treated plot)×100. This is also applicable to biological tests hereinafter.

large crabgrass [14] = assay: Foliar treatment test (2); type: in vivo; settings: 20th day after treatment; also: ranges in brackets are in %
Protocol: as §1, §7
as §3, with “The seeds were grown in a greenhouse, and at the stage of 1˜2 leaves of these plants,” for “Then,”, “leaf and stalk portions at a rate of 200 liter/10 are.” for “the soil surface.”
as §8, §9

green foxtail [15] = assay: Foliar treatment test (2); type: in vivo; settings: 20th day after treatment; also: ranges in brackets are in %
Protocol: as §1, §7
as §3, with “The seeds were grown in a greenhouse, and at the stage of 1˜2 leaves of these plants,” for “Then,”, “leaf and stalk portions at a rate of 200 liter/10 are.” for “the soil surface.”
as §8, §9

barnyard grass [16] = assay: Foliar treatment test (2); type: in vivo; settings: 20th day after treatment; also: ranges in brackets are in %
Protocol: as §1, §7
as §3, with “The seeds were grown in a greenhouse, and at the stage of 1˜2 leaves of these plants,” for “Then,”, “leaf and stalk portions at a rate of 200 liter/10 are.” for “the soil surface.”
as §8, §9

slender amaranth [17] = assay: Foliar treatment test (2); type: in vivo; settings: 20th day after treatment; also: ranges in brackets are in %
Protocol: as §1, §7
as §3, with “The seeds were grown in a greenhouse, and at the stage of 1˜2 leaves of these plants,” for “Then,”, “leaf and stalk portions at a rate of 200 liter/10 are.” for “the soil surface.”
as §8, §9

cocklebur [18] = assay: Foliar treatment test (2); type: in vivo; settings: 20th day after treatment; also: ranges in brackets are in %
Protocol: as §1, §7
as §3, with “The seeds were grown in a greenhouse, and at the stage of 1˜2 leaves of these plants,” for “Then,”, “leaf and stalk portions at a rate of 200 liter/10 are.” for “the soil surface.”
as §8, §9

velvetleaf [19] = assay: Foliar treatment test (7); type: in vivo; settings: 1000 g a.i./hectare, 20th day after spraying; also: ranges in brackets are in %
Protocol: as §1
(§10) (7) Biological Test (Foliar Treatment Test, Herbicide Examples 43-47 and Comparative Examples 11 and 12)
(§11) Seeds of weeds such as large crabgrass, barnyardgrass, green foxtail, cocklebur, velvetleaf and slender amaranth and seeds of corn, wheat and barley were sown in 1/5,000-are Wagner pots filled with upland soil, and covered with upland soil. The seeds were grown in a greenhouse, and at the stage of 1 to 2 leaves of these plants, a predetermined amount of the herbicide prepared in the above (1) was suspended in water and uniformly sprayed onto leaf and stalk portions at a rate of 200 liter/10 ares. Thereafter, the plants were grown in the greenhouse, and on the 20th day after the spraying treatment, the herbicide was evaluated for herbicidal efficacy.
as §8, §9

large crabgrass [20] = assay: Foliar treatment test (7); type: in vivo; settings: 1000 g a.i./hectare, 20th day after spraying; also: ranges in brackets are in %
Protocol: as §1, §10, §11, §8, §9

barnyardgrass = assay: Foliar treatment test (7); type: in vivo; settings: 1000 g a.i./hectare, 20th day after spraying; also: ranges in brackets are in %
Protocol: as §1, §10, §11, §8, §9

green foxtail [21] = assay: Foliar treatment test (7); type: in vivo; settings: 1000 g a.i./hectare, 20th day after spraying; also: ranges in brackets are in %
Protocol: as §1, §10, §11, §8, §9

slender amaranth [22] = assay: Foliar treatment test (7); type: in vivo; settings: 1000 g a.i./hectare, 20th day after spraying; also: ranges in brackets are in %
Protocol: as §1, §10, §11, §8, §9

cocklebur [23] = assay: Foliar treatment test (7); type: in vivo; settings: 1000 g a.i./hectare, 20th day after spraying; also: ranges in brackets are in %
Protocol: as §1, §10, §11, §8, §9

velvetleaf [24] = assay: Upland soil treatment test (8); type: in vivo; settings: 1000 g a.i./hectare, 20th day after spraying; also: ranges in brackets are in %
Protocol: as §1
(§12) (8) Biological Test (Upland Soil Treatment Test, Herbicide Examples 48-52 and Herbicide Comparative Examples 13 and 14)
(§13) Seeds of weeds such as large crabgrass, barnyard brass, green foxtail, cocklebur, velvetleaf and slender amarnth and seeds of corn, wheat and barley were sown in 1/5,000-are Wagner pots filled with upland soil, and covert with upland soil. Then, a predetermined amount of the herbicide prepared in the above (1) was suspended in water and uniformly sprayed onto the soil surface. Thereafter, the plant were grown in the greenhouse, and on the 20th day after the spraying treatment, the herbicide was evaluated for herbicidal efficacy.
as §6

large crabgrass [25] = assay: Upland soil treatment test (8); type: in vivo; settings: 1000 g a.i./hectare, 20th day after spraying; also: ranges in brackets are in %
Protocol: as §1, §12, §13, §6

green foxtail [26] = assay: Upland soil treatment test (8); type: in vivo; settings: 1000 g a.i./hectare, 20th day after spraying; also: ranges in brackets are in %
Protocol: as §1, §12, §13, §6

barnyard grass [27] = assay: Upland soil treatment test (8); type: in vivo; settings: 1000 g a.i./hectare, 20th day after spraying; also: ranges in brackets are in %
Protocol: as §1, §12, §13, §6

slender amaranth [28] = assay: Upland soil treatment test (8); type: in vivo; settings: 1000 g a.i./hectare, 20th day after spraying; also: ranges in brackets are in %
Protocol: as §1, §12, §13, §6

cocklebur [29] = assay: Upland soil treatment test (8); type: in vivo; settings: 1000 g a.i./hectare, 20th day after spraying; also: ranges in brackets are in %
Protocol: as §1, §12, §13, §6

melting point: 208.8 to 209.3 °C
Compound: CCn1ncc(C(=O)c2cc(C)c3c(c2C)C(C)(C)CCS3(=O)=O)c1O [Compound 1, 4,4,5,8-tetramethyl-6-(1-ethyl-5-hydroxypyrazol-4-yl)carbonyl-thiochroman-1,1-dioxide]
Phyto-toxicity to corn (corn): 0 (100)
Herbicidal Efficacy velvetleaf (velvetleaf [1]; dosage 3 g a.i./are): 5 (0)
Herbicidal Efficacy velvetleaf (velvetleaf [1]; dosage 10 g a.i./are): 5 (0)
Herbicidal Efficacy large crabgrass (large crabgrass [2]; dosage 3 g a.i./are): 5 (0)
Herbicidal Efficacy large crabgrass (large crabgrass [2]; dosage 10 g a.i./are): 5 (0)
Herbicidal Efficacy green foxtail (green foxtail [3]; dosage 3 g a.i./are): 5 (0)
Herbicidal Efficacy green foxtail (green foxtail [3]; dosage 10 g a.i./are): 5 (0)
Herbicidal Efficacy barnyard grass (barnyard grass [4]; dosage 3 g a.i./are): 5 (0)
Herbicidal Efficacy barnyard grass (barnyard grass [4]; dosage 10 g a.i./are): 5 (0)
Herbicidal Efficacy slender amaranth (slender amaranth [5]; dosage 3 g a.i./are): 5 (0)
Herbicidal Efficacy slender amaranth (slender amaranth [5]; dosage 10 g a.i./are): 5 (0)
Herbicidal Efficacy cocklebur (cocklebur [6]; dosage 3 g a.i./are): 5 (0)
Herbicidal Efficacy cocklebur (cocklebur [6]; dosage 10 g a.i./are): 5 (0)
Herbicidal Efficacy velvetleaf (velvetleaf [7]): 5 (0)
Herbicidal Efficacy large crabgrass (large crabgrass [8]): 5 (0)
Herbicidal Efficacy green foxtail (green foxtail [9]): 5 (0)
Herbicidal Efficacy barnyard grass (barnyard grass [10]): 5 (0)
Herbicidal Efficacy slender amaranth (slender amaranth [11]): 5 (0)
Herbicidal Efficacy cocklebur (cocklebur [12]): 5 (0)
Herbicidal Efficacy velvetleaf (velvetleaf [13]; dosage 3 g a.i./are): 5 (0)
Herbicidal Efficacy velvetleaf (velvetleaf [13]; dosage 10 g a.i./are): 5 (0)
Herbicidal Efficacy large crabgrass (large crabgrass [14]; dosage 3 g a.i./are): 5 (0)
Herbicidal Efficacy large crabgrass (large crabgrass [14]; dosage 10 g a.i./are): 5 (0)
Herbicidal Efficacy green foxtail (green foxtail [15]; dosage 3 g a.i./are): 5 (0)
Herbicidal Efficacy green foxtail (green foxtail [15]; dosage 10 g a.i./are): 5 (0)
Herbicidal Efficacy barnyard grass (barnyard grass [16]; dosage 3 g a.i./are): 5 (0)
Herbicidal Efficacy barnyard grass (barnyard grass [16]; dosage 10 g a.i./are): 5 (0)
Herbicidal Efficacy slender amaranth (slender amaranth [17]; dosage 3 g a.i./are): 5 (0)
Herbicidal Efficacy slender amaranth (slender amaranth [17]; dosage 10 g a.i./are): 5 (0)
Herbicidal Efficacy cocklebur (cocklebur [18]; dosage 3 g a.i./are): 5 (0)
Herbicidal Efficacy cocklebur (cocklebur [18]; dosage 10 g a.i./are): 5 (0)

Compound: Pyrazolate [x, reference compound]
Herbicidal Efficacy velvetleaf (velvetleaf [19]): 0 (81-100)
Herbicidal Efficacy large crabgrass (large crabgrass [20]): 0 (81-100)
Herbicidal Efficacy barnyard grass (barnyardgrass): 0 (81-100)
Herbicidal Efficacy green foxtail (green foxtail [21]): 0 (81-100)
Herbicidal Efficacy slender amaranth (slender amaranth [22]): 0 (81-100)
Herbicidal Efficacy cocklebur (cocklebur [23]): 0 (81-100)
Herbicidal Efficacy velvetleaf (velvetleaf [24]): 0 (81-100)
Herbicidal Efficacy large crabgrass (large crabgrass [25]): 0 (81-100)
Herbicidal Efficacy green foxtail (green foxtail [26]): 0 (81-100)
Herbicidal Efficacy barnyard grass (barnyard grass [27]): 0 (81-100)
Herbicidal Efficacy slender amaranth (slender amaranth [28]): 1 (61-80)
Herbicidal Efficacy cocklebur (cocklebur [29]): 0 (81-100)
Herbicidal Efficacy velvetleaf (velvetleaf [1]; dosage 10 g a.i./are): 0 (81-100)
Herbicidal Efficacy large crabgrass (large crabgrass [2]; dosage 10 g a.i./are): 0 (81-100)
Herbicidal Efficacy green foxtail (green foxtail [3]; dosage 10 g a.i./are): 0 (81-100)
Herbicidal Efficacy barnyard grass (barnyard grass [4]; dosage 10 g a.i./are): 0 (81-100)
Herbicidal Efficacy slender amaranth (slender amaranth [5]; dosage 10 g a.i./are): 0 (81-100)
Herbicidal Efficacy cocklebur (cocklebur [6]; dosage 10 g a.i./are): 0 (81-100)
Herbicidal Efficacy velvetleaf (velvetleaf [13]; dosage 10 g a.i./are): 0 (81-100)
Herbicidal Efficacy large crabgrass (large crabgrass [14]; dosage 10 g a.i./are): 0 (81-100)
Herbicidal Efficacy green foxtail (green foxtail [15]; dosage 10 g a.i./are): 0 (81-100)
Herbicidal Efficacy barnyard grass (barnyard grass [16]; dosage 10 g a.i./are): 0 (81-100)
Herbicidal Efficacy slender amaranth (slender amaranth [17]; dosage 10 g a.i./are): 1 (61-80)
Herbicidal Efficacy cocklebur (cocklebur [18]; dosage 10 g a.i./are): 0 (81-100)
